Values quoted from earlier work in patent publication US20260102408A1, “CONTRACEPTIVE COMPOSITIONS WITH REDUCED ADVERSE EFFECTS” (ESTETRA SRL, priority 2020, published 2026).

Details: single oral dose; Blode H et al. Study 1; Caucasian; geometric mean

Which “AUCinf of DRSP” value does the source give for C[C@]12CCC(=O)C=C1[C@@H]1C[C@@H]1[C@H]1[C@@H]3[C@@H]4C[C@@H]4[C@@]4(CCC(=O)O4)[C@@]3(C)CC[C@@H]12 [DRSP 3 mg, drospirenone] here?
The value was 506 ng·h/mL.

And the “Cmax of DRSP” value?
The value was 33.9 ng/mL.
